inhibition, IC50 and logIC50 data for 14 molecules are collected here from ChEMBL document CHEMBL5055676, “Novel methyllycaconitine analogues selective for the α4β2 over α7 nicotinic acetylcholine receptors” (Bioorg Med Chem, 2021).

Structures are written as SMILES. Active and inactive are the calls of the source. The calls are words filed in the database; no cut-off is given here.

Assay [1] has as its target T1, Neuronal acetylcholine receptor; alpha4/beta2 (Homo sapiens, UniProt P17787+P43681). Description: Inhibition of human (alpha4)3(beta2)2 nAChR expressed in Xenopus laevis oocytes assessed as inhibition of acetylcholine-induced current response at 10 uM pretreated for 30 secs followed by co-application with acetylcholine measured at holding potential of -60 mV by two-electrode voltage-clamp method. It counts as cell-based. The conditions noted are these: Oocyte, time 30.0 sec. A general note: In two-electrode clamp one electrode senses voltage and the other passes current.

Assay [2] concerns the target T1, Neuronal acetylcholine receptor; alpha4/beta2. Description: Inhibition of human (alpha4)2(beta2)3 nAChR expressed in Xenopus laevis oocytes assessed as inhibition of acetylcholine-induced current response at 10 uM pretreated for 30 secs followed by co-application with acetylcholine measured at holding potential of -60 mV by two-electrode voltage-clamp method. Format: cell-based. The settings on record: Oocyte, time 30.0 sec.

Assay [3] concerns the target Neuronal acetylcholine receptor; alpha4/beta2 (Rattus norvegicus, UniProt P09483+P12390). The experiment in a line: Inhibition of rat alpha4beta2 nAChR expressed in Xenopus laevis oocytes assessed as inhibition of acetylcholine-elicited current response measured at holding potential of -60 mV by two-electrode voltage-clamp method. It counts as cell-based, Oocyte.
Assay [4] concerns the target Neuronal acetylcholine receptor subunit alpha-7 (Rattus norvegicus, UniProt Q05941). The experiment in a line: Inhibition of rat alpha7 nAChR expressed in Xenopus laevis oocytes assessed as inhibition of acetylcholine-elicited current response measured at holding potential of -60 mV by two-electrode voltage-clamp method. Format: cell-based, Oocyte.
Assay [5] addresses T1, Neuronal acetylcholine receptor; alpha4/beta2. The experiment in a line: Inhibition of human (alpha4)3(beta2)2 nAChR expressed in Xenopus laevis oocytes assessed as inhibition of acetylcholine-induced current response in presence of 100 uM acetylcholine by two-electrode voltage-clamp method. The settings on record: for logIC50: Oocyte. Format: cell-based.
Assay [6] has the same target. Description: Inhibition of human (alpha4)2(beta2)3 nAChR expressed in Xenopus laevis oocytes assessed as inhibition of acetylcholine-induced current response in presence of 3 uM acetylcholine by two-electrode voltage-clamp method. Format: cell-based. The conditions noted are these: for logIC50: Oocyte.
The target is the same in assay [7]. The experiment in a line: Non-competitive antagonist activity at human (alpha4)3(beta2)2 nAChR expressed in Xenopus laevis oocytes decrease in acetylcholine-induced maximum current with non-significant change in Ach potency at IC50 pretreated for 30 secs followed by co-application with acetylcholine measured at holding potential of -60 mV by two-electrode voltage-clamp method. It counts as cell-based. The conditions noted are these: Oocyte, time 30.0 sec.

T1 sequence (P17787 whole entry): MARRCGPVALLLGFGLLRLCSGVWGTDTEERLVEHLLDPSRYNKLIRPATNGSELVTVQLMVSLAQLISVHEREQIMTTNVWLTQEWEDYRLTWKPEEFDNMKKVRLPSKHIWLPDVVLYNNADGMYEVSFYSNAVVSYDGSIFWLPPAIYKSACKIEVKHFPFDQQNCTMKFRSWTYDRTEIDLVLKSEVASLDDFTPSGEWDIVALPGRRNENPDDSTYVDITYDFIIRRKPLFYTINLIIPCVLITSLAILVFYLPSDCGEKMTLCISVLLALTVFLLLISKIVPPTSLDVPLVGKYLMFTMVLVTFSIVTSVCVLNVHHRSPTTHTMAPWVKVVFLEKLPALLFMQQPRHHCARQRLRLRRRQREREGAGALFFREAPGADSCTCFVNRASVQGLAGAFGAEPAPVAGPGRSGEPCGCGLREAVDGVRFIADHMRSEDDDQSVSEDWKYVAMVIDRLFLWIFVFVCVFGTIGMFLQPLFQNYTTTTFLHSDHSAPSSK
T1 sequence (P43681 whole entry): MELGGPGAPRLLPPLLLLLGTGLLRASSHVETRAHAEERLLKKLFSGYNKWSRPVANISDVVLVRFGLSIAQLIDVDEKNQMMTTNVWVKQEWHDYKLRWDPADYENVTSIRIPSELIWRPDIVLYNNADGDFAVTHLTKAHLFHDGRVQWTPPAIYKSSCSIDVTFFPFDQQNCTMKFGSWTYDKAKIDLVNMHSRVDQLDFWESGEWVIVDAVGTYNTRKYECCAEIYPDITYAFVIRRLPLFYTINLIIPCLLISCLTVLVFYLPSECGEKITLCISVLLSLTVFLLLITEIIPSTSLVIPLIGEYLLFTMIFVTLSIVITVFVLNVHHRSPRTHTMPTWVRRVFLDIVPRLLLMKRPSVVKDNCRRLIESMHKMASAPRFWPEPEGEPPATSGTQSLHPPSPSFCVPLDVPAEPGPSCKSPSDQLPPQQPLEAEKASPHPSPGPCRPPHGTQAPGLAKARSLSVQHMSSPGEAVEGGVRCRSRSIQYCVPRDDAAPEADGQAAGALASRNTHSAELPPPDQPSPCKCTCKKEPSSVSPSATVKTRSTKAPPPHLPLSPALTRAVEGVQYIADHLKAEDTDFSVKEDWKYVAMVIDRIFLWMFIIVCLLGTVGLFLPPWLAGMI
Chain of Neuronal acetylcholine receptor subunit alpha-7 (Q05941 whole entry): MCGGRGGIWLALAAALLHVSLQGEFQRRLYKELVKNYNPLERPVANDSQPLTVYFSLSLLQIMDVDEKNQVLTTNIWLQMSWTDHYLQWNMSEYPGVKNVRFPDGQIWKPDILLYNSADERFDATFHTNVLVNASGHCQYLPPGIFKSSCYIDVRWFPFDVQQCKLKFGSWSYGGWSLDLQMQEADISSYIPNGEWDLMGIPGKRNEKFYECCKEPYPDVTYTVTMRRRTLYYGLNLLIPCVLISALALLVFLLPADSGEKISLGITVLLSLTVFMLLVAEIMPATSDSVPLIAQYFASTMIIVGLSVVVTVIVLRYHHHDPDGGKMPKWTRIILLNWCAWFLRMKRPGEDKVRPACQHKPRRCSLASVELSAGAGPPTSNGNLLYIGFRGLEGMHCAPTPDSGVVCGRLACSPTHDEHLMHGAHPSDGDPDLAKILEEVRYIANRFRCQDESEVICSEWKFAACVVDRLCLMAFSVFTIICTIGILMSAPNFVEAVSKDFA
Chain of Neuronal acetylcholine receptor; alpha4/beta2 (Rattus norvegicus, UniProt P09483+P12390) (P09483 whole entry): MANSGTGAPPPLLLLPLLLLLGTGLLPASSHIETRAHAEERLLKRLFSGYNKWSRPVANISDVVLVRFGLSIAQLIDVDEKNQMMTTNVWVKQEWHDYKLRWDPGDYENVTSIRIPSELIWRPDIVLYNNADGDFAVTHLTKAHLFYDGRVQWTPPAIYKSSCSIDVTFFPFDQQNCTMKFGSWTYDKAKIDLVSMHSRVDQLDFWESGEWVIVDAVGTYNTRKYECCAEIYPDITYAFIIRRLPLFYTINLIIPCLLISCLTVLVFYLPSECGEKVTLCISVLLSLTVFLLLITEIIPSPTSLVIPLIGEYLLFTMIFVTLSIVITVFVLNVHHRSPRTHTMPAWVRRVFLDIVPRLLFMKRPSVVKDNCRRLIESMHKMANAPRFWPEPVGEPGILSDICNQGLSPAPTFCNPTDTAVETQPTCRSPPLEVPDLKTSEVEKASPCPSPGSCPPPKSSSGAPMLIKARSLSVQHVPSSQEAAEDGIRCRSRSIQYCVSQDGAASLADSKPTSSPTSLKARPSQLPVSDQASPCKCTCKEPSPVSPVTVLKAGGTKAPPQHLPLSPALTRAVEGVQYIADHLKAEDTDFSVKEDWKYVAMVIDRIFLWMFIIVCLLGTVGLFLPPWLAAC
Chain of Neuronal acetylcholine receptor; alpha4/beta2 (Rattus norvegicus, UniProt P09483+P12390) (P12390 whole entry): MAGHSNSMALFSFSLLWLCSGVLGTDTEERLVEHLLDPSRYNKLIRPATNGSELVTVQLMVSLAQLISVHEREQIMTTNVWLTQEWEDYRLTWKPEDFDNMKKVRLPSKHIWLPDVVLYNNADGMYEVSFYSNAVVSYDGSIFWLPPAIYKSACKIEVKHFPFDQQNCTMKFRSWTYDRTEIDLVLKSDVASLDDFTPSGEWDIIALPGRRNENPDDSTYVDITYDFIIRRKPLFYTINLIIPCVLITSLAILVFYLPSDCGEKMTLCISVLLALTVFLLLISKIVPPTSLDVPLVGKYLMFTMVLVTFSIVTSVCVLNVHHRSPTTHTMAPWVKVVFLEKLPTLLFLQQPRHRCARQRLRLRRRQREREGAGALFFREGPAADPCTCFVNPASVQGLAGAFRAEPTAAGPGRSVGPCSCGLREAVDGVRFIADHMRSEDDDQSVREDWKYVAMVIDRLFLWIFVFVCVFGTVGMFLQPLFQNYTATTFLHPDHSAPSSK

A word on the inhibition: it is the share of the control response that was lost under treatment. For the molecule `C=C1[C@@H]2CCC[C@@]1(COC(=O)c1ccccc1-c1ccccn1)CN(CC)C2`, the inhibition in assay [1] turned out to be 50%. Also, the inhibition entry in assay [2] was “Active”.

For `C=C1[C@@H]2CCC[C@@]1(COC(=O)c1ccccc1-c1cccc(NC(C)=O)c1)CN(CC)C2`, in assay [1], the inhibition entry is “Active”.

As for `C=C1[C@@H]2CCC[C@@]1(COC(=O)c1ccccc1-c1cccnc1)CN(CC)C2`, the inhibition entry in assay [1] was “Active”.

A word on the IC50: it is the concentration that inhibits the measured activity by half. Regarding `C=C1[C@@H]2CCC[C@@]1(COC(=O)c1ccccc1N1C(=O)CC(C)C1=O)CN(CC)C2` (stereo partly specified), the figures for the half-inhibitory concentration (IC50) in assay [3] and in assay [4] were 4.66 µM and 20.7 µM, respectively.

Regarding `CCN1C[C@]2(COC(=O)c3ccccc3N3C(=O)C[C@H](C)C3=O)CC[C@H](OC)[C@]34C1[C@@](O)([C@@H](OC)[C@H]23)[C@@]1(O)C[C@H](OC)[C@H]2C[C@@H]4[C@@H]1[C@H]2OC`, the inhibition in assay [1] is 95%. The logIC50 was -1.1 in assay [5] and -0.8 in assay [6]. Moreover, the inhibition entry in assay [7] and in assay [2] was “Active” each time.

Regarding `C=C1[C@@H]2CCC[C@@]1(COC(=O)c1ccccc1-c1ccc(NC(C)=O)cn1)CN(CC)C2`, the inhibition in assay [1] was 60%. The IC50 in assay [5] stood at 4.1 µM; in assay [6], 29.1 µM. Also, the results for the logIC50 in assay [5] and in assay [6] were 0.6 and 1.5, respectively. Further, the inhibition entry in assay [7] and in assay [2] was “Active” throughout.

For the molecule `C=C1[C@@H]2CCC[C@@]1(COC(=O)c1ccccc1-c1ccccc1)CN(CC)C2`, the inhibition result in assay [1] is “Active”.

Consider `C=C1[C@@H]2CCC[C@@]1(COC(=O)c1ccccc1-c1cncc(NC(C)=O)c1)CN(CC)C2`, for which the inhibition in assay [1] came out at 60%. For the same molecule, the inhibition entry in assay [2] was “Active”.

Take `C=C1[C@@H]2CCC[C@@]1(COC(=O)c1ccccc1-c1cccc(NC(C)=O)n1)CN(CC)C2`: in assay [1], the inhibition was 80%. Moreover, the values for the IC50 in assay [5] and in assay [6] were 4.9 µM and 27.3 µM, respectively. Also, the logIC50 is 0.7 in assay [5] and 1.4 in assay [6]. Further, the inhibition entry in assay [7] and in assay [2] was “Active” in each case.

In the case of `C=C1[C@@H]2CCC[C@@]1(COC(=O)c1ccccc1-c1ccc(NC(C)=O)nc1)CN(CC)C2`, the inhibition in assay [1] amounted to 60%. Besides, the inhibition entry in assay [2] is “Active”.

Consider `C=C1[C@@H]2CCC[C@@]1(COC(=O)c1ccccc1-c1ccnc(NC(C)=O)c1)CN(CC)C2`, for which the inhibition in assay [1] came out at 60%. Also, in assay [2], the inhibition result was “Active”.

Regarding `C=C1[C@@H]2CCC[C@@]1(COC(=O)c1ccccc1-c1ccncc1)CN(CC)C2`, the inhibition result in assay [1] is “Active”.

With `C=C1[C@@H]2CCC[C@@]1(COC(=O)c1ccccc1-c1ccc(NC(C)=O)cc1)CN(CC)C2`, in assay [1], the inhibition result was “Active”.

`C=C1[C@@H]2CCC[C@@]1(COC(=O)c1ccccc1-c1cc(NC(C)=O)ccn1)CN(CC)C2`: the inhibition in assay [1] is 80%. In addition, the IC50 in assay [5] was 3.9 µM; in assay [6] it was 15 µM. The logIC50 in assay [5] amounted to 0.6; in assay [6], 1.2. The inhibition result in assay [7] and in assay [2] was “Active” throughout.
